The record followed here is patent publication US20230365592A1 (Agios Pharmaceuticals, Inc., priority 2022, published 2023).

Molecules are shown by their SMILES.

The experiment has as its target T1, human PAH with the R408W mutation (Homo sapiens, UniProt P00439, R408W).
T1 construct: expressed in transfected cells
T1 sequence (P00439 1-452 R408W): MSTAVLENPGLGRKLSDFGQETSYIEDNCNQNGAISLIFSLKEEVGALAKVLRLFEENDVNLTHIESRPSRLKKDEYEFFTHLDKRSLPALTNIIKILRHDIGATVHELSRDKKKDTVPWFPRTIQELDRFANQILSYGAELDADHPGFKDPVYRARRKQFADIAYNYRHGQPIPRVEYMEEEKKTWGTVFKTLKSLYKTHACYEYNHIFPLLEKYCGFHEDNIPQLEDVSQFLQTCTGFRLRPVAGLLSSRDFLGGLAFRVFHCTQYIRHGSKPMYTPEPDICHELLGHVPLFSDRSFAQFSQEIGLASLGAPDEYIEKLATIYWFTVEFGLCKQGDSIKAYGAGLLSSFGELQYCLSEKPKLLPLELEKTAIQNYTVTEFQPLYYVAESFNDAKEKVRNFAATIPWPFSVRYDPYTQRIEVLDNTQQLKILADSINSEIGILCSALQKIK
Put plainly: Cell Based Phenylalanine Flux Assay.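 Also: after compound treatment, cells received sepiapterin plus isotope-labelled Phenylalanine for 4 hours, then labelled Tyrosine in the medium was quantified, 10-point 2-fold dilution series run in duplicate.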 The settings on record: A375 cells expressing human PAH R408W; 24 hrs compound incubation; 13C-Tyrosine by LC-MS; average where tested multiple times; read-out: AC50.
With `O=C(c1nnc(-c2cncnc2)o1)N1CCc2[nH]cnc2[C@H]1c1cc2c(F)cccn2n1` [Example 1974, (S)-(4-(4-fluoropyrazolo[1,5-a]pyridin-2-yl)-1,4,6,7-tetrahydro-5H-imidazo[4,5-c]pyridin-5-yl)(5-(pyrimidin-5-yl)-1,3,4-oxadiazol-2-yl)methanone], the AC50 lay in the range of 500 to 1000 nM. The result for `O=C(c1nnc(-c2cncnc2)o1)N1CCc2[nH]cnc2[C@@H]1c1cc2c(F)cccn2n1` [Example 1975, (R)-(4-(4-fluoropyrazolo[1,5-a]pyridin-2-yl)-1,4,6,7-tetrahydro-5H-imidazo[4,5-c]pyridin-5-yl)(5-(pyrimidin-5-yl)-1,3,4-oxadiazol-2-yl)methanone] reads more than 5000 nM; that for `Fc1cccn2nc([C@H]3c4nc[nH]c4CCN3c3ccccn3)cc12` [Example 1976, (R)-4-(4-fluoropyrazolo[1,5-a]pyridin-2-yl)-5-(pyridin-2-yl)-4,5,6,7-tetrahydro-1H-imidazo[4,5-c]pyridine], more than 5000 nM.

For the compound `Fc1cccn2nc([C@@H]3c4nc[nH]c4CCN3c3ccccn3)cc12` [Example 1977, (S)-4-(4-fluoropyrazolo[1,5-a]pyridin-2-yl)-5-(pyridin-2-yl)-4,5,6,7-tetrahydro-1H-imidazo[4,5-c]pyridine], the half-maximal activity concentration (AC50) was in the range of 500 to 1000 nM. As for `FC(F)c1cccn2nc([C@H]3c4nc[nH]c4CCN3c3ccccn3)cc12` [Example 1978, (R)-4-(4-(difluoromethyl)pyrazolo[1,5-a]pyridin-2-yl)-5-(pyridin-2-yl)-4,5,6,7-tetrahydro-1H-imidazo[4,5-c]pyridine], the figure is more than 5000 nM; as for `FC(F)c1cccn2nc([C@@H]3c4nc[nH]c4CCN3c3ccccn3)cc12` [Example 1979, (S)-4-(4-(difluoromethyl)pyrazolo[1,5-a]pyridin-2-yl)-5-(pyridin-2-yl)-4,5,6,7-tetrahydro-1H-imidazo[4,5-c]pyridine], less than 500 nM; as for `CC(C)c1cccn2nc([C@@H]3c4nc[nH]c4CCN3C(=O)c3nnc(-c4ncccn4)o3)cc12` [Example 1981, (S)-(4-(4-isopropylpyrazolo[1,5-a]pyridin-2-yl)-1,4,6,7-tetrahydro-5H-imidazo[4,5-c]pyridin-5-yl)(5-(pyrimidin-2-yl)-1,3,4-oxadiazol-2-yl)methanone], 500 to 1000 nM. Take `CC(C)c1cccn2nc([C@@H]3c4nc[nH]c4CCN3C(=O)c3nnc(-c4ccn(C(F)(F)F)n4)o3)cc12` [Example 1984, (S)-(4-(4-isopropylpyrazolo[1,5-a]pyridin-2-yl)-1,4,6,7-tetrahydro-5H-imidazo[4,5-c]pyridin-5-yl)(5-(1-(trifluoromethyl)-1H-pyrazol-3-yl)-1,3,4-oxadiazol-2-yl)methanone]: the AC50 is less than 500 nM. Turning to `CC(C)c1cccn2nc([C@H]3c4nc[nH]c4CCN3C(=O)c3nnc(-c4ccn(C(F)(F)F)n4)o3)cc12` [Example 1985, (R)-(4-(4-isopropylpyrazolo[1,5-a]pyridin-2-yl)-1,4,6,7-tetrahydro-5H-imidazo[4,5-c]pyridin-5-yl)(5-(1-(trifluoromethyl)-1H-pyrazol-3-yl)-1,3,4-oxadiazol-2-yl)methanone], the AC50 was more than 5000 nM.

On to `O=C(c1ocnc1C1CC1)N1CCc2[nH]cnc2[C@H]1c1cc2c(F)cccn2n1` [Example 1986, (S)-(4-cyclopropyloxazol-5-yl)(4-(4-fluoropyrazolo[1,5-a]pyridin-2-yl)-1,4,6,7-tetrahydro-5H-imidazo[4,5-c]pyridin-5-yl)methanone], for which the AC50 is less than 500 nM.

Turning to `O=C(c1ocnc1C1CC1)N1CCc2[nH]cnc2[C@@H]1c1cc2c(F)cccn2n1` [Example 1987, (R)-(4-cyclopropyloxazol-5-yl)(4-(4-fluoropyrazolo[1,5-a]pyridin-2-yl)-1,4,6,7-tetrahydro-5H-imidazo[4,5-c]pyridin-5-yl)methanone], the AC50 lay in the range of 1000 to 5000 nM. Take `Cc1cccn2nc([C@@H]3c4nc[nH]c4CCN3C(=O)c3ncco3)cc12` [Example 1989, (S)-(4-(4-methylpyrazolo[1,5-a]pyridin-2-yl)-1,4,6,7-tetrahydro-5H-imidazo[4,5-c]pyridin-5-yl)(oxazol-2-yl)methanone]: the AC50 was 500 to 1000 nM. Consider `O=C(c1nnc(C2CC2)s1)N1CCc2[nH]cnc2[C@H]1c1cc2ccccn2n1` [Example 1991, (S)-(5-cyclopropyl-1,3,4-thiadiazol-2-yl)(4-(pyrazolo[1,5-a]pyridin-2-yl)-1,4,6,7-tetrahydro-5H-imidazo[4,5-c]pyridin-5-yl)methanone], for which the AC50 was 500 to 1000 nM. In the case of `O=C(c1nnc(C2CC2)s1)N1CCc2[nH]cnc2[C@@H]1c1cc2c(F)cccn2n1` [Example 1992, (R)-(5-cyclopropyl-1,3,4-thiadiazol-2-yl)(4-(4-fluoropyrazolo[1,5-a]pyridin-2-yl)-1,4,6,7-tetrahydro-5H-imidazo[4,5-c]pyridin-5-yl)methanone], the concentration at half-maximal activity (AC50) was more than 5000 nM. `O=C(c1nnc(C2CC2)s1)N1CCc2[nH]cnc2[C@H]1c1cc2c(F)cccn2n1` [Example 1993, (S)-(5-cyclopropyl-1,3,4-thiadiazol-2-yl)(4-(4-fluoropyrazolo[1,5-a]pyridin-2-yl)-1,4,6,7-tetrahydro-5H-imidazo[4,5-c]pyridin-5-yl)methanone]: the AC50 is less than 500 nM. For `Cn1ccc(-c2nnc(C(=O)N3CCc4[nH]cnc4[C@@H]3c3cc4c(F)cccn4n3)s2)n1` [Example 1994, (R)-(4-(4-fluoropyrazolo[1,5-a]pyridin-2-yl)-1,4,6,7-tetrahydro-5H-imidazo[4,5-c]pyridin-5-yl)(5-(1-methyl-1H-pyrazol-3-yl)-1,3,4-thiadiazol-2-yl)methanone], the AC50 was more than 5000 nM. On to `Cn1ccc(-c2nnc(C(=O)N3CCc4[nH]cnc4[C@H]3c3cc4c(F)cccn4n3)s2)n1` [Example 1995, (S)-(4-(4-fluoropyrazolo[1,5-a]pyridin-2-yl)-1,4,6,7-tetrahydro-5H-imidazo[4,5-c]pyridin-5-yl)(5-(1-methyl-1H-pyrazol-3-yl)-1,3,4-thiadiazol-2-yl)methanone], for which the concentration at half-maximal activity (AC50) is less than 500 nM. Turning to `Cc1cccn2nc([C@@H]3c4nc[nH]c4CCN3C(=O)c3nnc(C4CC4)s3)cc12` [Example 1997, (S)-(5-cyclopropyl-1,3,4-thiadiazol-2-yl)(4-(4-methylpyrazolo[1,5-a]pyridin-2-yl)-1,4,6,7-tetrahydro-5H-imidazo[4,5-c]pyridin-5-yl)methanone], the AC50 lay within 500 to 1000 nM. Take `Cc1cccn2nc([C@@H]3c4nc[nH]c4CCN3C(=O)c3nnc(-c4ccn(C)n4)s3)cc12` [Example 1998, (S)-(5-(1-methyl-1H-pyrazol-3-yl)-1,3,4-thiadiazol-2-yl)(4-(4-methylpyrazolo[1,5-a]pyridin-2-yl)-1,4,6,7-tetrahydro-5H-imidazo[4,5-c]pyridin-5-yl)methanone]: the AC50 is less than 500 nM. In the case of `Cc1cccn2nc([C@H]3c4nc[nH]c4CCN3C(=O)c3nnc(-c4ccn(C)n4)s3)cc12` [Example 1999, (R)-(5-(1-methyl-1H-pyrazol-3-yl)-1,3,4-thiadiazol-2-yl)(4-(4-methylpyrazolo[1,5-a]pyridin-2-yl)-1,4,6,7-tetrahydro-5H-imidazo[4,5-c]pyridin-5-yl)methanone], the AC50 is more than 5000 nM. The result for `O=C(c1nc2ccccc2s1)N1CCc2[nH]cnc2[C@H]1c1cc2ccccn2n1` [Example 2000, (S)-benzo[d]thiazol-2-yl(4-(pyrazolo[1,5-a]pyridin-2-yl)-1,4,6,7-tetrahydro-5H-imidazo[4,5-c]pyridin-5-yl)methanone] reads 1000 to 5000 nM; that for `O=C(c1nc2ccccc2s1)N1CCc2[nH]cnc2[C@@H]1c1cc2ccccn2n1` [Example 2001, (R)-benzo[d]thiazol-2-yl(4-(pyrazolo[1,5-a]pyridin-2-yl)-1,4,6,7-tetrahydro-5H-imidazo[4,5-c]pyridin-5-yl)methanone], more than 5000 nM. In the case of `O=C(c1nc2ccccc2s1)N1CCc2[nH]cnc2[C@H]1c1cc2c(F)cccn2n1` [Example 2002, (S)-benzo[d]thiazol-2-yl(4-(4-fluoropyrazolo[1,5-a]pyridin-2-yl)-1,4,6,7-tetrahydro-5H-imidazo[4,5-c]pyridin-5-yl)methanone], the AC50 was in the range of 500 to 1000 nM. `O=C(c1nc2ccccc2s1)N1CCc2[nH]cnc2[C@@H]1c1cc2c(F)cccn2n1` [Example 2003, (R)-benzo[d]thiazol-2-yl(4-(4-fluoropyrazolo[1,5-a]pyridin-2-yl)-1,4,6,7-tetrahydro-5H-imidazo[4,5-c]pyridin-5-yl)methanone]: the AC50 was more than 5000 nM.

As for `Cn1nccc1-c1nnc(C(=O)N2CCc3[nH]cnc3[C@H]2c2cc3ccccn3n2)o1` [Example 2004, (S)-(5-(1-methyl-1H-pyrazol-5-yl)-1,3,4-oxadiazol-2-yl)(4-(pyrazolo[1,5-a]pyridin-2-yl)-1,4,6,7-tetrahydro-5H-imidazo[4,5-c]pyridin-5-yl)methanone], the AC50 fell in the range of 500 to 1000 nM.

For `Cn1nccc1-c1nnc(C(=O)N2CCc3[nH]cnc3[C@@H]2c2cc3ccccn3n2)o1` [Example 2005, (R)-(5-(1-methyl-1H-pyrazol-5-yl)-1,3,4-oxadiazol-2-yl)(4-(pyrazolo[1,5-a]pyridin-2-yl)-1,4,6,7-tetrahydro-5H-imidazo[4,5-c]pyridin-5-yl)methanone], the AC50 was more than 5000 nM.
